According to publication PMC12193833, “Toxicity Assessment and Antifungal Potential of Copper(II) and Silver(I) Complexes with 1,10-Phenanthroline-5,6-dione Against Drug-Resistant Clinical Isolates of Cryptococcus gattii and Cryptococcus neoformans” (Journal of Fungi, 2025):
≈ marks a conversion by molar mass, not a printed value.

Assays:
[1] = tested on: C. gattii clinical isolates; test: MIC/MFC of test compounds, microdilution; type: cell-based, Cryptococcus gattii
Text: (§1) Six clinical isolates belonging to the Cryptococcus genus were obtained from patients who attended the Instituto Nacional de Infectologia Evandro Chagas (INI), Fundação Oswaldo Cruz (FIOCRUZ), and were kindly provided by Dr. Rodrigo Almeida-Paes (INI-FIOCRUZ). To comply with ethical standards and institutional agreements between UFRJ and FIOCRUZ, patient data were not disclosed. In this sense, the C. neoformans isolates were designated CFP00213 (213), CFP00223 (223), and CFP00350 (350), while the C. gattii isolates were labeled CFP00023 (23), CFP00025 (25), and CFP00027 (27). Before each experiment, an aliquot of the culture was transferred from Sabouraud dextrose agar (2% glucose, 1% peptone, and 0.5% yeast extract) to RPMI 1640 medium (Sigma-Aldrich, St. Louis, MO, USA), pH 7.2, buffered with 0.165 M MOPS (Sigma-Aldrich, St. Louis, MO, USA). RPMI medium induces the expression of capsular polysaccharides, the primary virulence factor of Cryptococcus cells. The cultures were incubated at 37 °C for 48 h to promote cell proliferation, stimulate metabolic activation, and enhance capsular development. Yeast cell counts were determined using a Neubauer chamber.
(§2) Following MIC determination, the MFC was assessed by inoculating 10 µL from wells showing no visible fungal growth onto Sabouraud dextrose agar. […] To further support and strengthen the evidence of the anti-Cryptococcus activity of the Cu-phendione and Ag-phendione complexes, we additionally performed MIC/MFC assays using well-characterized standard reference strains: ATCC 28957, H99, T1444 (all C. neoformans), and R265 (C. gattii).

[2] = tested on: C. neoformans clinical isolates; test: MIC/MFC of test compounds, microdilution; type: cell-based, Cryptococcus neoformans
Text: as §1, §2

[3] = tested on: Galleria mellonella larvae; test: In vivo acute toxicity, single treatment; conditions: single inoculation; for Larval survival: 125–1000 µM, 10 µL/larva, 37 °C
Method: In this set of experiments, G. mellonella larvae weighing approximately 0.2–0.3 g and displaying clear, uniform coloration were used. The larvae were inoculated (10 µL/larva) using an insulin syringe (BD Ultra-Fine, Franklin Lakes, NJ, USA) at the last left proleg. […] We also assessed their coloration through visual analysis as an indicator of stress levels. Throughout the experiments, the larvae were maintained at 37 °C [19, 42]. Two distinct treatment protocols were designed to evaluate the effects of the test compounds on larval survivability, as detailed below.
For the acute toxicity analysis, the test compounds were administered to the larvae in a single inoculation at concentrations ranging from 1000 to 125 μM. Each group consisted of 10 larvae, while the control group received only sterile PBS with 4% DMSO. […] The SI was calculated using the following equation: SI = G. mellonella CC50/Cryptococcus MIC.

[4] = tested on: six clinical Cryptococcus isolates; test: Susceptibility to clinically available antifungals, all six isolates; type: cell-based, Cryptococcus neoformans and Cryptococcus gattii
Text: as §1
(§3) The susceptibility profile was evaluated using the microdilution method in RPMI 1640 medium buffered with 0.165 M MOPS, following the M27-A3 protocol for yeasts established by the Clinical and Laboratory Standards Institute (CLSI). […] Each fungal isolate was classified as either wild-type or non-wild-type for each antifungal based on the epidemiological cutoff values provided in CLSI M59 ED3, 2020 [32].

[5] = tested on: C. gattii clinical isolates; test: Susceptibility to clinically available antifungals, CLSI M27-A3 microdilution; type: cell-based; conditions: Cryptococcus gattii
Text: as §1, §3

[6] = tested on: C. neoformans clinical isolates; test: as above; type: cell-based; conditions: Cryptococcus neoformans
Text: as §1, §3

[7] = tested on: G. mellonella; conditions: cited from earlier work
[8] = tested on: G. mellonella larvae; design: method as in PMID 32265890; conditions: cited from earlier work; for Toxicity in G. mellonella larvae: up to 500 µg/mL, within 72 h; for Mortality rate in G. mellonella larvae: 750 µg/mL
[9] = C. gattii isolate 23, read-out: MIC
[10] = C. gattii isolate 25, read-out: MIC
[11] = C. gattii isolate 27, read-out: MIC
[12] = all C. gattii clinical isolates
[13] = C. neoformans isolate 213, read-out: MIC
[14] = C. neoformans isolate 223, read-out: MIC
[15] = C. neoformans isolate 350, read-out: MIC
[16] = all C. neoformans clinical isolates
[17] = 24 h, C. gattii isolate 23, 37 °C
[18] = 24 h, C. gattii isolate 25, 37 °C
[19] = 24 h, C. gattii isolate 27, 37 °C
[20] = C. gattii isolate 23, value in brackets
[21] = C. gattii isolate 25, value in brackets
[22] = C. gattii isolate 27, value in brackets
[23] = 24 h, C. neoformans isolate 213, 37 °C
[24] = 24 h, C. neoformans isolate 223, 37 °C
[25] = 24 h, C. neoformans isolate 350, 37 °C
[26] = C. neoformans isolate 213, value in brackets
[27] = C. neoformans isolate 223, value in brackets
[28] = C. neoformans isolate 350, value in brackets
[29] = across all six clinical Cryptococcus isolates

[Ag+].[O-][Cl+3]([O-])([O-])[O-] [AgClO4, silver perchlorate]
MFC ([1]; C. gattii isolate 23): 12.5 µM
MIC [1, 9]: 1.56 µM
MFC ([1]; C. gattii isolate 25): 12.5 µM
MIC [1, 10]: 1.56 µM
MFC ([1]; C. gattii isolate 27): 12.5 µM
MIC [1, 11]: 1.56 µM
MFC [1, 12]: 12.5 µM
MIC ([1]; all C. gattii clinical isolates, read-out: MIC): 1.56 µM
MFC ([2]; C. neoformans isolate 213): > 100 µM
MIC [2, 13]: 1.56 µM
MFC ([2]; C. neoformans isolate 223): > 100 µM
MIC [2, 14]: 1.56 µM
MFC ([2]; C. neoformans isolate 350): > 100 µM
MIC [2, 15]: 1.56 µM
MFC [2, 16]: > 100 µM
MIC ([2]; all C. neoformans clinical isolates, read-out: MIC): 1.56 µM
Larval mortality ([3]; 250 µM): 20%
Larval mortality ([3]; 500 µM): 20%
Larval mortality ([3]; 1000 µM): 50%

C[C@@H]1[C@H](O)[C@@H](C)/C=C/C=C/C=C/C=C/C=C/C=C/C=C/[C@H](O[C@@H]2O[C@H](C)[C@@H](O)[C@H](N)[C@@H]2O)C[C@@H]2O[C@](O)(C[C@@H](O)C[C@@H](O)[C@H](O)CC[C@@H](O)C[C@@H](O)CC(=O)O[C@H]1C)C[C@H](O)[C@H]2C(=O)O [Amphotericin B, amphotericin B]
MIC ([4]; all other Cryptococcus isolates (except C. neoformans isolate printed as 233)): 0.03 µg/mL (≈ 0.0325 µM)
MIC [5, 17]: 0.03 µg/mL
MIC [5, 18]: 0.03 µg/mL
MIC [5, 19]: 0.03 µg/mL
MIC [5, 20]: 0.03 µM
MIC [5, 21]: 0.03 µM
MIC [5, 22]: 0.03 µM
MIC [6, 23]: 0.03 µg/mL
MIC [6, 24]: > 16 µg/mL
MIC [6, 25]: 0.03 µg/mL
MIC [6, 26]: 0.03 µM
MIC [6, 27]: > 17.3 µM
MIC [6, 28]: 0.03 µM

CC[C@H](C)C[C@H](C)CCCCCCCCC(=O)N[C@H]1C[C@@H](O)[C@@H](NCCN)NC(=O)[C@@H]2[C@@H](O)CCN2C(=O)[C@H]([C@H](O)CCN)NC(=O)[C@H]([C@H](O)[C@@H](O)c2ccc(O)cc2)NC(=O)[C@@H]2C[C@@H](O)CN2C(=O)[C@H]([C@@H](C)O)NC1=O [Caspofungin, caspofungin]
MIC [4, 29]: > 8 µg/mL
Hemocyte density [7]: do not increase hemocyte density
MIC [5, 17]: > 8 µg/mL
MIC [5, 18]: > 8 µg/mL
MIC [5, 19]: > 8 µg/mL
MIC [5, 20]: > 7.3 µM
MIC [5, 21]: > 7.3 µM
MIC [5, 22]: > 7.3 µM
MIC [6, 23]: > 8 µg/mL
MIC [6, 24]: > 8 µg/mL
MIC [6, 25]: > 8 µg/mL
MIC [6, 26]: > 7.3 µM
MIC [6, 27]: > 7.3 µM
MIC [6, 28]: > 7.3 µM

O.O.O.O.O.O.[Cu+2].[O-][Cl+3]([O-])([O-])[O-].[O-][Cl+3]([O-])([O-])[O-] [Cu(ClO4)2.6H2O, copper perchlorate]
MIC ([1]; C. gattii isolate 23): >100/ND µM
MIC ([1]; C. gattii isolate 25): >100/ND µM
MIC ([1]; C. gattii isolate 27): >100/ND µM
MIC [1, 12]: no antifungal activity
MIC ([2]; C. neoformans isolate 213): >100/ND µM
MIC ([2]; C. neoformans isolate 223): >100/ND µM
MIC ([2]; C. neoformans isolate 350): >100/ND µM
MIC [2, 16]: no antifungal activity
Larval survival [3]: 100%

OC(Cn1cncn1)(Cn1cncn1)c1ccc(F)cc1F [Fluconazole, fluconazole]
MIC [4, 29]: ≥ 4 µg/mL
MIC [5, 17]: 32 µg/mL
MIC [5, 18]: 16 µg/mL
MIC [5, 19]: 16 µg/mL
MIC [5, 20]: 104 µM
MIC [5, 21]: 52.2 µM
MIC [5, 22]: 52.2 µM

Nc1[nH]c(=O)ncc1F [Flucytosine, flucytosine]
MIC [5, 17]: 0.125 µg/mL
MIC [5, 18]: 4 µg/mL
MIC [5, 19]: 4 µg/mL
MIC [5, 20]: 0.96 µM
MIC [5, 21]: 30 µM
MIC [5, 22]: 30 µM
MIC [6, 23]: 4 µg/mL
MIC [6, 24]: 64 µg/mL
MIC [6, 25]: 16 µg/mL
MIC [6, 26]: 30 µM
MIC [6, 27]: 496 µM
MIC [6, 28]: 124 µM

O=C1C(=O)c2cccnc2-c2ncccc21 [Phendione, 1,10-Phenanthroline-5,6-dione]
MIC [1, 9]: 12.5 µM (≈ 2.63 µg/mL)
MIC [1, 10]: 12.5 µM (≈ 2.63 µg/mL)
MIC [1, 11]: 12.5 µM (≈ 2.63 µg/mL)
MFC ([1]; Cryptococcus gattii, C. gattii isolate 23): > 100 µM
MFC ([1]; Cryptococcus gattii, C. gattii isolate 25): 100 µM (≈ 21 µg/mL)
MFC ([1]; Cryptococcus gattii, C. gattii isolate 27): > 100 µM
MFC ([1]; Cryptococcus gattii, all C. gattii clinical isolates): ≥ 100 µM
MIC ([1]; Cryptococcus gattii, all C. gattii clinical isolates, read-out: MIC): 12.5 µM (≈ 2.63 µg/mL)
MIC [2, 13]: 12.5 µM (≈ 2.63 µg/mL)
MIC [2, 14]: 12.5 µM (≈ 2.63 µg/mL)
MIC [2, 15]: 12.5 µM (≈ 2.63 µg/mL)
MFC ([2]; Cryptococcus neoformans, C. neoformans isolate 213): > 100 µM
MFC ([2]; Cryptococcus neoformans, C. neoformans isolate 223): 100 µM (≈ 21 µg/mL)
MFC ([2]; Cryptococcus neoformans, C. neoformans isolate 350): 100 µM (≈ 21 µg/mL)
MFC ([2]; Cryptococcus neoformans, all C. neoformans clinical isolates): ≥ 100 µM
MIC ([2]; Cryptococcus neoformans, all C. neoformans clinical isolates, read-out: MIC): 12.5 µM (≈ 2.63 µg/mL)
Larval survival [3]: 100%

C[C@@H](c1ncncc1F)[C@](O)(Cn1cncn1)c1ccc(F)cc1F [Voriconazole, voriconazole]
MIC [4, 29]: 0.5 to 16 µg/mL (≈ 1.43 to 45.8 µM)
MIC [5, 17]: 4 µg/mL
MIC [5, 18]: 2 µg/mL
MIC [5, 19]: 4 µg/mL
MIC [5, 20]: 11.4 µM
MIC [5, 21]: 5.72 µM
MIC [5, 22]: 11.4 µM
MIC [6, 23]: 0.5 µg/mL
MIC [6, 24]: 16 µg/mL
MIC [6, 25]: 2 µg/mL
MIC [6, 26]: 1.4 µM
MIC [6, 27]: 45.8 µM
MIC [6, 28]: 5.72 µM

[Ag+].[O-][Cl+3]([O-])([O-])[O-].c1cnc2c(c1)ccc1cccnc12.c1cnc2c(c1)ccc1cccnc12 [[Ag(1,10-phenanthroline)2]ClO4]
Toxicity in G. mellonella larvae [8]: no toxicity
Galiomycin expression [7]: increased
RNA levels encoding transferrin and inducible metalloproteinase inhibitor protein (IMPI) [7]: increased

O.O.O.O.O=C([O-])c1cccc(C(=O)[O-])c1.O=C([O-])c1cccc(C(=O)[O-])c1.[Mn+2].[Mn+2].c1cnc2c(c1)ccc1cccnc12.c1cnc2c(c1)ccc1cccnc12.c1cnc2c(c1)ccc1cccnc12 [[Mn2(isophthalic acid)2(1,10-phenanthroline)3]·4H2O]
RNA levels encoding transferrin and inducible metalloproteinase inhibitor protein (IMPI) [7]: increased

O.O.O=C([O-])c1ccccc1C(=O)[O-].[Mn+2].c1cnc2c(c1)ccc1cccnc12 [[Mn(phthalic acid)(1,10-phenanthroline)(H2O)2]]
Mortality rate in G. mellonella larvae [8]: 40%
Toxicity in G. mellonella larvae [8]: no toxicity

O.O.O.O.O.O=C([O-])c1ccc(C(=O)[O-])cc1.[Mn+2].c1cnc2c(c1)ccc1cccnc12.c1cnc2c(c1)ccc1cccnc12 [[Mn(terephthalic acid)(1,10-phenanthroline)2]·5H2O]
Gallerimycin expression [7]: upregulated
RNA levels encoding transferrin and inducible metalloproteinase inhibitor protein (IMPI) [7]: increased

O.O.O.O.O.O.O.O.O.O.O.O.O.O.O.O.O=C([O-])c1cccc(C(=O)[O-])c1.O=C([O-])c1cccc(C(=O)[O-])c1.[Mn+2].[Mn+2].c1cnc2c(c1)ccc1cccnc12.c1cnc2c(c1)ccc1cccnc12.c1cnc2c(c1)ccc1cccnc12.c1cnc2c(c1)ccc1cccnc12.c1cnc2c(c1)ccc1cccnc12 [{[Mn(1,10-phenanthroline)2(H2O)2]}2(isophthalic acid)2(1,10-phenanthroline)·12H2O]
Mortality rate in G. mellonella larvae [8]: 13%

{[Cu(3,6,9-trioxaundecanedioic acid)(1,10-phenanthroline)2]3H2O·EtOH}n
Mortality rate in G. mellonella larvae [8]: 60%
Toxicity in G. mellonella larvae [8]: no toxicity

{[Mn(3,6,9-trioxoundecanedioic acid)(1,10-phenanthroline)2]·3H2O·EtOH}n
RNA levels encoding transferrin and inducible metalloproteinase inhibitor protein (IMPI) [7]: increased
